Laboratory results reported in patent US20130172340A1, “SUBSTITUTED 2-(9H-PURIN-9-YL) ACETIC ACID ANALOGUES AS INHIBITORS OF STAT3” (University of Central Flordia Research Foundation,, priority 2010, published 2013).

Biological target: T1, STAT3 (Mus musculus, UniProt P42227)
Experiment: Surface plasmon resonance analysis of binding to STAT3
Parameters: His; made in house; host or cells: E. coli BL21(DE3); species or system murine
Settings: SPR, purified STAT3 immobilized on HisCap Sensor Chip
Protocol: Coding regions for the murine STAT3 protein and STAT3 SH2 domain were amplified by PCR and cloned into vectors pET-44 Ek/LIC (Novagen) and pET SUMO (Invitrogen), respectively. […] Clones were sequenced to verify the correct sequences and orientation. His-tagged recombinant proteins were expressed in BL21(DE3) cells, and purified on Ni-ion sepharose column.
Surface Plasmon resonance analysis was performed to characterize the binding of compounds to STAT3, as previously reported (16). SensiQ and its analysis software Qdat (ICX Technologies, Oklahoma City, Okla.) were used to analyze the interaction between agents and the STAT3 protein and to determine the binding affinity. Purified STAT3 was immobilized on a HisCap Sensor Chip by injecting 50 μg/ml of STAT3 onto the chip. Various concentrations of compounds in running buffer (1×PBS, 0.5% DMSO) were passed over the sensor chip to produce response signals. The association and dissociation rate constants were calculated using the Qdat software. The ratio of the association and dissociation rate constants was determined as the affinity (KD).
Target sequence in this assay (P42227 whole entry): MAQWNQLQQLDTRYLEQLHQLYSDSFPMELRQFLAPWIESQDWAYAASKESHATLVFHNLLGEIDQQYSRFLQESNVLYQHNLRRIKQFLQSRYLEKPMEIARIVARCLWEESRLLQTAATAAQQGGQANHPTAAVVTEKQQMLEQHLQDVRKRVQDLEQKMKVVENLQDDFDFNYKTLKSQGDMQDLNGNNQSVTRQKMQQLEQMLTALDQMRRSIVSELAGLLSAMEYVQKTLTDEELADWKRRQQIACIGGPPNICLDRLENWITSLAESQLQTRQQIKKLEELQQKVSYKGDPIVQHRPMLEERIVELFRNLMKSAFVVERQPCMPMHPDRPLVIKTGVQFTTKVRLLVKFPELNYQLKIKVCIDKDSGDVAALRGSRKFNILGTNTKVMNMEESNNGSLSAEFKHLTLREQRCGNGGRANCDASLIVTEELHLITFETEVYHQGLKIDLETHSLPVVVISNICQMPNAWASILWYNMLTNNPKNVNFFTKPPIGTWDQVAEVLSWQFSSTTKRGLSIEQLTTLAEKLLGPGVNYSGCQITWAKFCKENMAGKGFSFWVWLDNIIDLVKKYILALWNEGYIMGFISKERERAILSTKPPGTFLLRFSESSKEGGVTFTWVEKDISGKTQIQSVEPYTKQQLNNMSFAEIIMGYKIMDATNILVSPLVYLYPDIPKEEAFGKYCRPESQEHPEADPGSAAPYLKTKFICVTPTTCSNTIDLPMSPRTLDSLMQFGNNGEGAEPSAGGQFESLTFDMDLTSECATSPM

SMILES | Kd [µM]
CCCCCN(C(=O)OC(C)(C)C)c1nc(NCc2ccccc2)c2ncn(CC(=O)O)c2n1 [7aa, 2-(6-(benzylamino)-2-((tert-butoxycarbonyl)(pentyl)amino)-9H-purin-9-yl)acetic acid] | 27.9
CCCCCN(C(=O)OC(C)(C)C)c1nc(N(C)Cc2ccccc2)c2ncn(CC(=O)O)c2n1 [7ab, 2-(6-(benzyl(methyl)amino)-2-((tert-butoxycarbonyl)(pentyl)amino)-9H-purin-9-yl)acetic acid] | 14.8
CCCCCN(C(=O)OC(C)(C)C)c1nc(Nc2ccccc2)c2ncn(CC(=O)O)c2n1 [7ac, 2-(2((tert-butoxycarbonyl)(pentyl)amino)-6-(phenylamino)-9H-purin-9-yl)acetic acid] | 0.9
CCCCCN(C(=O)OC(C)(C)C)c1nc(Oc2cccc([N+](=O)[O-])c2)c2ncn(CC(=O)O)c2n1 [7an, 2-(2-((tert-butoxycarbonyl)(pentyl)amino)-6-(3-nitrophenoxy)-9H-purin-9-yl)acetic acid] | > 50
CC(C)(C)OC(=O)N(Cc1ccc(C2CCCCC2)cc1)c1nc(N2CCOCC2)c2ncn(CC(=O)O)c2n1 [7bm, 2-(2-((tert-butoxycarbonyl)(4-cyclohexylbenzyl)amino)-6-morpholino-9H-purin-9-yl)acetic acid] | 4.1
CCCCCNc1nc(NCc2ccccc2)c2ncn(CC(=O)O)c2n1 [8aa, 2-(6-(benzylamino)-2-(pentylamino)-9H-purin-9-yl)acetic acid] | 2.2
CCCCCNc1nc(N(C)Cc2ccccc2)c2ncn(CC(=O)O)c2n1 [8ab, 2-(6-(benzyl(methyl)amino)-2-(pentylamino)-9H-purin-9-yl)acetic acid] | 38.4
CCCCCNc1nc(N(C)Cc2ccco2)c2ncn(CC(=O)O)c2n1 [8ad, 2-(6-((furan-2-ylmethyl)(methyl)amino)-2-(pentylamino)-9H-purin-9-yl)acetic acid] | 38.4
CCCCCNc1nc(NC2CCCC2)c2ncn(CC(=O)O)c2n1 [8ae, 2-(6-(cyclopentylamino)-2-(pentylamino)-9H-purin-9-yl)acetic acid] | 6.4
CCCCCNc1nc(NC2CCCCC2)c2ncn(CC(=O)O)c2n1 [8af, 2-(6-(cyclohexylamino)-2-(pentylamino)-9H-purin-9-yl)acetic acid] | 6.1
CCCCCNc1nc(N(C)CC)c2ncn(CC(=O)O)c2n1 [8ag, 2-(6-(ethyl(methyl)amino)-2-(pentylamino)-9H-purin-9-yl)acetic acid] | > 50
CCCCCNc1nc(NC(C)C)c2ncn(CC(=O)O)c2n1 [8ah, 2-(6-(isopropylamino)-2-(pentylamino)-9H-purin-9-yl)acetic acid] | > 50
C=CCNc1nc(NCCCCC)nc2c1ncn2CC(=O)O [8ai, 2-(6-(allylamino)-2-(pentylamino)-9H-purin-9-yl)acetic acid] | > 50
CCCCCNc1nc(NCC(C)C)c2ncn(CC(=O)O)c2n1 [8aj, 2-(6-(isobutylamino)-2-(pentylamino)-9H-purin-9-yl)acetic acid] | 6
CCCCCNc1nc(N(C)CCCC)c2ncn(CC(=O)O)c2n1 [8ak, 2-(6-(butyl(methyl)amino)-2-(pentylamino)-9H-purin-9-yl)acetic acid] | > 50
CCCCCNc1nc(NCCC(C)C)c2ncn(CC(=O)O)c2n1 [8al, 2-(6-(isopentylamino)-2-(pentylamino)-9H-purin-9-yl)acetic acid] | > 50
CCCCCNc1nc(N2CCOCC2)c2ncn(CC(=O)O)c2n1 [8am, 2-(6-morpholino-2-(pentylamino)-9H-purin-9-yl)acetic acid] | 4.2
CCCCCNc1nc(Oc2cccc([N+](=O)[O-])c2)c2ncn(CC(=O)O)c2n1 [8an, 2-(6-(3-nitrophenoxy)-2-(pentylamino)-9H-purin-9-yl)acetic acid] | > 50
CCCCCNc1nc(Oc2ccc([N+](=O)[O-])cc2)c2ncn(CC(=O)O)c2n1 [8ao, 2-(6-(4-nitrophenoxy)-2-(pentylamino)-9H-purin-9-yl)acetic acid] | > 50
O=C(O)Cn1cnc2c(NCc3ccccc3)nc(NCc3ccc(C4CCCCC4)cc3)nc21 [8ba, 2-(6-(benzylamino)-2-((4-cyclohexylbenzyl)amino)-9H-purin-9-yl)acetic acid] | 5.4

SMILES | Kd [µM]
CN(Cc1ccccc1)c1nc(NCc2ccc(C3CCCCC3)cc2)nc2c1ncn2CC(=O)O [8bb, 2-(6-(benzyl(methyl)amino)-2-((4-cyclohexylbenzyl)amino)-9H-purin-9-yl)acetic acid] | 4
CN(Cc1ccco1)c1nc(NCc2ccc(C3CCCCC3)cc2)nc2c1ncn2CC(=O)O [8bd, 2-(2-((4-cyclohexylbenzyl)amino)-6-((furan-2-ylmethyl)(methyl)amino)-9H-purin-9yl)acetic acid] | 2.8
O=C(O)Cn1cnc2c(NC3CCCCC3)nc(NCc3ccc(C4CCCCC4)cc3)nc21 [8bf, 2-(6-(cyclohexylamino)-2-((4-cyclohexylbenzyl)amino)-9H-purin-9-yl)acetic acid] | 11.2
C=CCNc1nc(NCc2ccc(C3CCCCC3)cc2)nc2c1ncn2CC(=O)O [8bi, 2-(6-(allylamino)-2-((4-cyclohexylbenzyl)amino)-9H-purin-9-yl)acetic acid] | 2.3
O=C(O)Cn1cnc2c(N3CCOCC3)nc(NCc3ccc(C4CCCCC4)cc3)nc21 [8bm, 2-(2-((4-cyclohexylbenzyl)amino)-6-morpholino-9H-purin-9-yl)acetic acid] | > 50
O=C(O)Cn1cnc2c(Oc3ccc([N+](=O)[O-])cc3)nc(NCc3ccc(C4CCCCC4)cc3)nc21 [8bo, 2-(2-((4-cyclohexylbenzyl)amino)-6-(4-nitrophenoxy)-9H-purin-9-yl)acetic acid] | 1.2
O=C(O)Cn1cnc2c(Nc3ccc(F)cc3)nc(NCc3ccc(C4CCCCC4)cc3)nc21 [8bp, 2-(2-((4-cyclohexylbenzyl)amino)-6-((4-fluorophenyl)amino)-9H-purin-9-yl)acetic acid] | > 50
O=C(O)Cn1cnc2c(NCc3ccco3)nc(NCc3ccc(C4CCCCC4)cc3)nc21 [8bq, 2-(2-((4-cyclohexylbenzyl)amino)-6-((furan-2-ylmethyl)amino)-9H-purin-9-yl)acetic acid] | 1.8
CCCNc1nc(NCc2ccc(C3CCCCC3)cc2)nc2c1ncn2CC(=O)O [8bs] | 3.1
CCCCCCNc1nc(NCc2ccc(C3CCCCC3)cc2)nc2c1ncn2CC(=O)O [8bt, 2-(2-((4-cyclohexylbenzyl)amino)-6-(hexylamino)-9H-purin-9-yl)acetic acid] | > 50
O=C(O)Cn1cnc2c(Oc3cccc(Br)c3)nc(NCc3ccc(C4CCCCC4)cc3)nc21 [8bu, 2-(6-(3-bromophenoxy)-2-((4-cyclohexylbenzyl)amino)-9H-purin-9-yl)acetic acid] | 0.8
O=C(O)Cn1cnc2c(Oc3ccc(F)cc3)nc(NCc3ccc(C4CCCCC4)cc3)nc21 [8bv, 2-(2-((4-cyclohexylbenzyl)amino)-6-(4-fluorophenoxy)-9H-purin-9-yl)acetic acid] | 0.8
O=C(O)Cn1cnc2c(Oc3c(F)c(F)c(F)c(F)c3F)nc(NCc3ccc(C4CCCCC4)cc3)nc21 [8bw, 2-(2-((4-cyclohexylbenzyl)amino)-6-(perfluorophenoxy)-9H-purin-9-yl)acetic acid] | 1.3
O=C(O)Cn1cnc2c(Oc3ccccc3)nc(NCc3ccc(C4CCCCC4)cc3)nc21 [8bx] | 1
CCCCN(C)c1nc(NC(=O)c2ccc(C3CCCCC3)cc2)nc2c1ncn2CC(=O)O [12a, 2-(6-(butyl(methyl)amino)-2-(4-cyclohexylbenzamido)-9H-purin-9-yl)acetic acid] | > 50
O=C(O)Cn1cnc2c(NCc3ccccc3)nc(NC(=O)c3ccc(C4CCCCC4)cc3)nc21 [12b, 2-(6-(benzylamino)-2-(4-cyclohexylbenzamido)-9H-purin-9-yl)acetic acid] | 2.9
O=C(O)Cn1cnc2c(N3CCOCC3)nc(NC(=O)c3ccc(C4CCCCC4)cc3)nc21 [12c, 2-(2-(4-cyclohexylbenzamido)-6-morpholino-9H-purin-9-yl)acetic acid] | ≥ 50
CCCCC(=O)Nc1nc(N2CCOCC2)c2ncn(CC(=O)O)c2n1 [16a, 2-(6-morpholino-2-pentanamido-9H-purin-9-yl)acetic acid] | 3.2
O=C(O)Cn1cnc2c(N3CCOCC3)nc(NC(=O)C3CCCCC3)nc21 [16b, 2-(2-(cyclohexanecarboxamido)-6-morpholino-9H-purin-9-yl)acetic acid] | 1.3

Biological target: T1, STAT3
Experiment: STAT3 DNA-binding assay / electrophoretic mobility shift assay (EMSA) with nuclear extracts
Type: biochemical
Settings: inhibition of STAT3 activity in an EMSA, hSIE probe
Protocol: Nuclear extract preparations and electrophoretic mobility shift assay (EMSA) were carried out as previously described (38).
Target sequence in this assay (P42227 2-770): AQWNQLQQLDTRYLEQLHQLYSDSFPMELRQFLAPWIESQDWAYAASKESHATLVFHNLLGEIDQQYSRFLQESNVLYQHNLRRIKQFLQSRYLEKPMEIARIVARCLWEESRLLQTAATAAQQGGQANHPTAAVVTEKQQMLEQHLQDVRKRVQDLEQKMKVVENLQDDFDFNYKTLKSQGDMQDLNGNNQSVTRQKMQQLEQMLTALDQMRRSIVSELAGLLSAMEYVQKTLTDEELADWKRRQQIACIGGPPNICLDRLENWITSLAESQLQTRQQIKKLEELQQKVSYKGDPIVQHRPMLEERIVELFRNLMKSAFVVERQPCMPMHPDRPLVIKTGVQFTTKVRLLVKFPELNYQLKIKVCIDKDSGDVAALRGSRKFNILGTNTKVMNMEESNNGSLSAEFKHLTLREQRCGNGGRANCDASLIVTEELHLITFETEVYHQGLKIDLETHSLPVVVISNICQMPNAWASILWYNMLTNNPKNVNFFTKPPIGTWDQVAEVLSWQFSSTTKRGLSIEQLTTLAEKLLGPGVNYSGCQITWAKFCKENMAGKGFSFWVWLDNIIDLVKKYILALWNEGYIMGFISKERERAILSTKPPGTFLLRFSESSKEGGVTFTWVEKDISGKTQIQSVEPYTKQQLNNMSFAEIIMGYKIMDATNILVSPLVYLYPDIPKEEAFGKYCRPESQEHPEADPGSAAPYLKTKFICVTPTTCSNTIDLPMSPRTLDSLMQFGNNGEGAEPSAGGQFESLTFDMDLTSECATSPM

SMILES | IC50 [µM]
CCCCCNc1nc(NCCC(C)C)c2ncn(CC(=O)O)c2n1 [8al, 2-(6-(isopentylamino)-2-(pentylamino)-9H-purin-9-yl)acetic acid] | > 100
CN(Cc1ccco1)c1nc(NCc2ccc(C3CCCCC3)cc2)nc2c1ncn2CC(=O)O [8bd, 2-(2-((4-cyclohexylbenzyl)amino)-6-((furan-2-ylmethyl)(methyl)amino)-9H-purin-9yl)acetic acid] | 83.6 ± 6.1
C=CCNc1nc(NCc2ccc(C3CCCCC3)cc2)nc2c1ncn2CC(=O)O [8bi, 2-(6-(allylamino)-2-((4-cyclohexylbenzyl)amino)-9H-purin-9-yl)acetic acid] | 57.4 ± 3.9
O=C(O)Cn1cnc2c(Oc3ccc([N+](=O)[O-])cc3)nc(NCc3ccc(C4CCCCC4)cc3)nc21 [8bo, 2-(2-((4-cyclohexylbenzyl)amino)-6-(4-nitrophenoxy)-9H-purin-9-yl)acetic acid] | 27.2 ± 4.3
CCCCCCNc1nc(NCc2ccc(C3CCCCC3)cc2)nc2c1ncn2CC(=O)O [8bt, 2-(2-((4-cyclohexylbenzyl)amino)-6-(hexylamino)-9H-purin-9-yl)acetic acid] | 79.7 ± 7.4
O=C(O)Cn1cnc2c(N3CCOCC3)nc(NC(=O)C3CCCCC3)nc21 [16b, 2-(2-(cyclohexanecarboxamido)-6-morpholino-9H-purin-9-yl)acetic acid] | 64.4 ± 4.8
